Measured values reported in PubChem BioAssay (NCI).
Values joined by “and” are separate entries in the source; they are usually repeats but may differ in a detail not shown here. Equal values may be shown once.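 How tested: cells in 96-well plates exposed to compound for 48 hours at five concentrations. At the GI50, growth is halved. TGI: total growth inhibition.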

Experiments:
Experiment in all cases: inhibition of tumour cell growth, NCI panel, 48 h
EKVX NSCLC = system: EKVX NSCLC
HL-60(TB) leukemia = system: HL-60(TB) leukemia
MOLT-4 leukemia = system: MOLT-4 leukemia
NCI-H23 lung = system: NCI-H23 lung
RXF 393 renal = system: RXF 393 renal
SK-MEL-2 melanoma = system: SK-MEL-2 melanoma
SN12C renal = system: SN12C renal
SNB-75 CNS = system: SNB-75 CNS
UO-31 renal = system: UO-31 renal
T-47D breast = system: T-47D breast

Row | Compound | TGI (EKVX NSCLC) | TGI (HL-60(TB) leukemia) | TGI (MOLT-4 leukemia) | TGI (NCI-H23 lung) | TGI (RXF 393 renal) | TGI (SK-MEL-2 melanoma) | TGI (SN12C renal) | TGI (SNB-75 CNS) | TGI (UO-31 renal) | GI50 (HL-60(TB) leukemia) | GI50 (MOLT-4 leukemia) | GI50 (NCI-H23 lung) | GI50 (RXF 393 renal) | GI50 (SK-MEL-2 melanoma) | GI50 (SN12C renal) | GI50 (SNB-75 CNS) | GI50 (T-47D breast) | TGI (T-47D breast) | GI50 (UO-31 renal) | GI50 (EKVX NSCLC)
1 | COC(=O)[C@H]1C=C[C@@H](C)n2c(=O)c3cc4ccccc4cc3c(=O)n21 | > 100 µM | > 100 µM | > 100 µM | > 100 µM | > 100 µM | > 100 µM | > 100 µM | > 100 µM | > 100 µM | – | – | – | – | – | – | – | – | – | – | –
2 | Cc1cc(C)nc(NS(=O)(=O)c2ccc(NC(=O)c3cccc4c(Nc5ccc(S(N)(=O)=O)cc5)c5ccccc5nc34)cc2)n1 | > 100 µM | 29.6 µM | 29.3 µM | > 100 µM | > 81.8 µM | > 31.1 µM | > 82.6 µM | > 100 µM | > 100 µM | – | – | – | – | – | – | – | – | – | – | –
3 | Cc1ccc(NC(=O)CSc2nnc(-c3ccc(N=Cc4ccc(Cl)cc4)cc3)o2)cc1 | > 100 µM | > 100 µM | > 100 µM | > 100 µM | > 100 µM | > 100 µM | > 100 µM | > 100 µM | > 100 µM | – | – | – | – | – | – | – | – | – | – | –
4 | COC1(OC)CC2C(=O)N(Cc3ccccc3)C1C=C2S(=O)(=O)c1ccccc1 (stereo not given) | 33.1 µM | 36.7 µM | 50.3 µM | 38.1 µM | 29 µM | – | 30.1 µM | 93.9 µM | 65.1 µM | – | – | – | – | – | – | – | – | – | – | –
5 | C/C(CC(=O)Nc1cccc(Cl)c1C)=N\NC(=O)c1ccncc1 | > 100 µM | > 100 µM | > 100 µM | > 100 µM | 87.9 µM | > 100 µM | – | > 100 µM | > 100 µM | – | – | – | – | – | – | – | – | – | – | –
6 | Cc1nc([N+](=O)[O-])cn1CC(=N)N | > 100 µM | > 100 µM | > 100 µM | > 100 µM | > 100 µM | > 100 µM | > 100 µM | > 100 µM | > 100 µM | – | – | – | – | – | – | – | – | – | – | –
7 | CC1COC(C)(C)P(=O)(c2ccccc2)C1 (stereo not given) | > 100 µM | > 100 µM | > 100 µM | > 100 µM | > 100 µM | > 100 µM | > 100 µM | > 100 µM | > 100 µM | – | – | – | – | – | – | – | – | – | – | –
8 | O=C(CSC1CCc2ccccc21)N/N=C/c1ccccc1O (stereo not given) | – | 8.72 µM | 56.7 µM | > 100 µM | 61.3 µM | 24.6 µM | 67.4 µM | > 100 µM | 17 µM | 2.6 µM | 3.79 µM | 9.83 µM | 5.27 µM | 5.26 µM | 4.67 µM | 5.52 µM | 7.04 µM | > 100 µM | 0.985 µM | –
9 | COc1cc(C=O)c(-c2cc(OC)c(OC)cc2C=O)cc1OC | > 100 µM | > 100 µM | > 100 µM | > 100 µM | 86.3 µM | > 100 µM | > 100 µM | > 100 µM | > 100 µM | – | – | – | – | – | – | – | – | – | – | –
10 | O=C1NC(=NCCc2cccc(Cl)c2)S/C1=C\c1ccc2ncccc2c1 | – | > 25 µM | > 25 µM | > 25 µM | > 25 µM | > 25 µM | > 25 µM | > 25 µM | > 25 µM | > 25 µM | > 25 µM | > 25 µM | > 25 µM | > 25 µM | > 25 µM | > 25 µM | > 25 µM | > 25 µM | > 25 µM | –
11 | COc1ccc(O)c(C(=O)c2ccc(C(=O)N[C@H]3CCCNC[C@@H]3NC(=O)c3ccncc3)cc2)c1F | – | > 25 µM | 11.6 µM | > 25 µM | 15 µM | > 22.4 µM | > 25 µM | – | > 25 µM | > 23.5 µM | 1.38 µM | 2.63 µM | 1.44 µM | 4.2 µM | 3.61 µM | 0.0135 µM | 0.463 µM | > 25 µM | > 18.9 µM | –
12 | CC(C)N(CCn1c2c3ccccc3ccc2c2oc(=O)c3ccccc3c21)C(C)C | > 100 µM | > 100 µM | > 100 µM | > 100 µM | > 100 µM | > 100 µM | > 100 µM | 75.9 µM | > 100 µM | – | – | – | – | – | – | – | – | – | – | –
13 | COC(=O)/C=C1\CCC(C)O1 (stereo not given) | > 100 µM | > 100 µM | > 100 µM | > 100 µM | > 100 µM | > 100 µM | > 100 µM | 94 µM | > 100 µM | – | – | – | – | – | – | – | – | – | – | –
14 | COC(=O)[C@@H](C)C[C@H](Cc1ccccc1)NC(=O)c1csc([C@@H](C[C@H](C(C)C)N(C)C(=O)[C@@H](NC(=O)[C@H]2CCCCN2C)C2CCCCC2)OC(C)=O)n1 | – | 0.00159 µM and < 0.0025 µM | 4.87 µM | > 25 µM | – | – | 8.9 µM | 22.2 µM | 7.76 µM | 0.000306 µM and < 0.0025 µM | 0.00512 µM and 0.0025 µM | 0.00079 µM and 0.0025 µM | 0.00103 µM | – | 0.0041 µM and 0.0025 µM | 0.00103 µM and 0.0025 µM | – | – | 0.00684 µM and 0.0415 µM | 0.00278 µM
15 | N#CC(C(=O)C(=O)Nc1ccc(Cl)cc1)c1ccccc1 (stereo not given) | > 100 µM | > 100 µM | > 100 µM | > 100 µM | > 100 µM | > 100 µM | > 100 µM | > 100 µM | > 100 µM | – | – | – | – | – | – | – | – | – | – | –
16 | S=c1[nH]c(=S)c2nnn(-c3ccccc3)c2[nH]1 | > 100 µM | > 100 µM | > 100 µM | > 100 µM | > 100 µM | > 100 µM | > 100 µM | > 100 µM | > 100 µM | – | – | – | – | – | – | – | – | – | – | –
17 | COC(=O)/C=C/c1c(CC=C(C)C)ncn1C | > 100 µM | 31.6 µM | > 100 µM | > 100 µM | > 87 µM | > 100 µM | > 100 µM | 56 µM | > 92.7 µM | – | – | – | – | – | – | – | – | – | – | –
18 | CCCN1CN(C(C(=O)N[C@@H]2C(=O)N3C2SC(C)(C)C3C(=O)O)c2ccc(O)cc2)CSC1=S (stereo not given in full) | > 100 µM | > 100 µM | > 100 µM | > 100 µM | – | > 100 µM | > 100 µM | > 100 µM | > 100 µM | – | – | – | – | – | – | – | – | – | – | –
19 | Cc1cccc(C)c1NC(=O)C(=O)C(C(=O)c1ccccc1-c1ccccc1)C1OC(=O)c2ccccc21 (stereo not given) | 65.4 µM | 88.9 µM | 58.1 µM | 30 µM | 28.4 µM | 35.6 µM | – | 53.4 µM | 57.6 µM | – | – | – | – | – | – | – | – | – | – | –
20 | CN[C@@H](C)[C@@H](NC)c1ccccc1 | > 100 µM | – | > 100 µM | > 100 µM | > 100 µM | – | > 100 µM | > 100 µM | > 100 µM | – | – | – | – | – | – | – | – | – | – | –
